Assay results: patent US8129197B2, “Cholesterol loaded insect cell membranes as test proteins” (SOLVO Biotechnológial ZRT., priority 2006, dated 2012)
Read-outs that look alike come from different tables or passages of the source. Blank lines part the entries; values can stand above or below the molecule they belong to.

Legend:
wild-type ABCG2 = molecular target: T1, wild-type ABCG2 (Homo sapiens, UniProt Q9UNQ0); assay: Vesicular transport assay, inside-out ABCG2-Sf9 membrane vesicles
T1 sequence (Q9UNQ0 1-655): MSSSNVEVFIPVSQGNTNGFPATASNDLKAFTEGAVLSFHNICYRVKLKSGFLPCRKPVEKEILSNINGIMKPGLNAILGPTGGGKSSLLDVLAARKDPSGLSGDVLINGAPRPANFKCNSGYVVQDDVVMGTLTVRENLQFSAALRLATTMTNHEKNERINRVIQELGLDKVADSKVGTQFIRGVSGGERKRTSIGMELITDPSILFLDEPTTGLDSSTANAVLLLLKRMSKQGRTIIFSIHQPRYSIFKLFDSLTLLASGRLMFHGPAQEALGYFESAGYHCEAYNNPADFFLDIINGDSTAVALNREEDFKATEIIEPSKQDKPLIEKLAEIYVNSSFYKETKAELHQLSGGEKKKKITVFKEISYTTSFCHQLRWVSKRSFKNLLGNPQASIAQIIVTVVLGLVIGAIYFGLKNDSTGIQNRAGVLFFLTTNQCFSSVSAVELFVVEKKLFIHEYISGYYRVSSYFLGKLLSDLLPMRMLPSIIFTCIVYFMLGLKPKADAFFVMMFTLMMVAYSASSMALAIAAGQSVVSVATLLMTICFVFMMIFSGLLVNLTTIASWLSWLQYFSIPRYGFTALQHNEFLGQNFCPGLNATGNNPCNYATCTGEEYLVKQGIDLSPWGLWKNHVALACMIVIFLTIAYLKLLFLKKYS
Protocol: Measurement of the vesicular transport activity: The transport activity measurements were carried out with purified membrane vesicles containing ABCG2 or Bsep isolated from baculovirus infected Sf9 (Spodoptera frugiperda) cells or mammalian (ABCG2-M) cells. The membrane preparations contain 5-16% closed, inside-out oriented, membrane vesicles. The transporter pumps the molecules inside of these vesicles. The vesicles can be separated by rapidly filtrating of the membrane suspension through a glass filter or through a nitrocellulose membrane (using vacuum).
The quantitative determination of the transported molecule can be done in several ways, like: HPLC, LC/MS, but also fluorescent or radioactive labeling is also suitable. Tritium labeled substrates were used in the assays and the mode of detection was liquid-scintillation.
Measurement of the vesicular transport activity in case of ABCG2: More closely, as examples, inside-out membrane vesicles were incubated in the presence or absence of 4 mM ATP. […] The transport was stopped by addition of cold wash buffer (40 mM MOPS-Tris (pH 7.0), 70 mM KCl).
The transport was stopped by addition of cold wash buffer (10 mM Tris-HCl, pH 7.4; 250 mM sucrose and 100 mM NaCl).
For estrone-3-sulfate vesicular transport 10 mM Tris-HCl, (pH 7.4), 250 mM sucrose, and 10 mM MgCl2 containing buffer were incubated at 32° C. for 1 min. The transport was stopped by addition of cold wash buffer (10 mM Tris-HCl, pH 7.4; 250 mM sucrose and 100 mM NaCl).
The incubation mix was then rapidly filtered through class B glass fiber filters (pore size, 0.1 μm). Filters were washed with 5×200 μl of ice cold wash buffer and radioactivity retained on the filter was measured by liquid scintillation counting. ATP-dependent transport was calculated by subtracting the values obtained in the absence of ATP from those in the presence of ATP.
Exemplary Assay Design and Main Steps for ABCG2 • Prepare an appropriate concentration of membrane suspension in assay buffer; add the unlabeled and ^3H-labeled substrates to the suspension.

ABCG2 [1] = molecular target: T2, ABCG2 (Homo sapiens, UniProt Q9UNQ0); assay: Vanadate sensitive ABCG2-ATPase assay in ABCG2-M (mammalian cell) membranes
T2 sequence (Q9UNQ0 1-655): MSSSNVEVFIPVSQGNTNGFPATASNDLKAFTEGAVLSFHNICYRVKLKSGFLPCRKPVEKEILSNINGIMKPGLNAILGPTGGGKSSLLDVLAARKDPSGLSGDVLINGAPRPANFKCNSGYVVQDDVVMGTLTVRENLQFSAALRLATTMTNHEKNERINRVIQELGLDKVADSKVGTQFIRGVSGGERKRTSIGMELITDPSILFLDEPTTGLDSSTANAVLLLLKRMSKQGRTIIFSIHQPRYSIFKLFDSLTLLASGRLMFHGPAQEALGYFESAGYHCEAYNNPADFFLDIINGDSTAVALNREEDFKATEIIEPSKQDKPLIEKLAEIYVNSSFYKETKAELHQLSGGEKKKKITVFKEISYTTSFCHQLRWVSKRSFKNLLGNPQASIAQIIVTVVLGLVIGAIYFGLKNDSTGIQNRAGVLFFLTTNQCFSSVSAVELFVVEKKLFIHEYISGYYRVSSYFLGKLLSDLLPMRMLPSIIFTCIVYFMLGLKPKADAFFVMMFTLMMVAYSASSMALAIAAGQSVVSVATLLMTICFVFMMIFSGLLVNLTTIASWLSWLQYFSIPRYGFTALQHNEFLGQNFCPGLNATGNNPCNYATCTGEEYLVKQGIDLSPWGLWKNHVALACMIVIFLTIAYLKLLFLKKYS
Protocol: Human membrane vesicle preparations (ABCG2-M) as well as membrane vesicle preparations obtained from insect cells expressing ABCG2, (MXR-Sf9) were obtained from Solvo Biotechnology (Budapest, Hungary). Both membranes are overexpressing the wild type version of ABCG2. The insect membrane vesicle preparations were produced using recombinant baculoviruses encoding ABCG2 (Ozvegy et al., 2002). Sf9 cells were cultured and infected with recombinant baculovirus stocks as described earlier (Sarkadi et al., 1992). Purified membrane vesicles from baculovirus-infected Sf9 cells were prepared essentially as described previously (Sarkadi et al., 1992). Membrane protein content was determined using the BCA method (Pierce Biotechnology, Rockford, Ill., USA).
(§1) Measurement of transporter activity: The ATPase activity of transporters are measured based on their vanadate sensitivity as known in the literature (see Noe et al. Hepatology, 2001, Vol. 33, No. 5, pp 1223-31; Schmitt et al. J. Neural. Transm., in press; Özvegy C et al. “Functional characterization of the human multidrug transporter, ABCG2, expressed in insect cells” Biochem Biophys Res Commun. 2001 July 6; 285(1):111-7.; Sarkadi, B. et al. (1992) Expression of the human multidrug resistance cDNA in insect cells generates a high activity drug-stimulated membrane ATPase. J Biol Chem 267: 4854-4858.).
(§2) The samples treated with cyclodextrin, or cholesterol@RAMEB complex was compared with untreated vesicles.
(§3) Briefly, as an example, membrane vesicles (20 μg/well) were incubated in ATPase assay buffer (10 mM MgCl2, 40 mM MOPS-Tris (pH 7.0), 50 mM KCl, 5 mM dithiothreitol, 0.1 mM EGTA, 4 mM sodium azide, 1 mM ouabain), 5 mM ATP and various concentrations of test drugs for 40 min at 37° C. ATPase activities were determined as the difference of inorganic phosphate liberation measured with and without the presence of 1.2 mM sodium orthovanadate (vanadate-sensitive ATPase activity).

ABCG2 [2] = molecular target: T2, ABCG2; assay: Vanadate sensitive ABCG2-ATPase assay in ABCG2-Sf9 (insect cell) membranes
Protocol: as §1, §2, §3
EC50 is defined according to the International Union of Pharmacology Committee (Neubig, R. R., Spedding, M., Kenakin, T. and Christopoulos, A. (2003) International Union of Pharmacology Committee on Receptor Nomenclature and Drug Classification. XXXVIII. Update on terms and symbols in quantitative pharmacology. Pharmacol Rev 55: 597-606.).
The Michaelis-Menten parameters of maximal velocity (Vmax) and drug affinity (Km) were obtained from plots of the ATPase activity as a function of test drug concentration by nonlinear regression of the following equation:
where v=enzyme activity (nmol Pi/min/mg), Vmax=maximal ATPase activity (nmol Pi/min/mg), Km=Michaelis-Menten constant for the tested substrate (nM) and [S] substrate concentration (nM). The equation 3 was used also for curve fitting on vesicular transport graphs.

[3] = substrate: CN(Cc1cnc2nc(N)nc(N)c2n1)c1ccc(C(=O)N[C@@H](CCC(=O)O)C(=O)O)cc1; assay: cells, lysate or membranes named

Molecule: Nc1ncnc2c1ncn2[C@@H]1O[C@H](COP(=O)(O)OP(=O)(O)OP(=O)(O)O)[C@@H](O)[C@H]1O [ATP]
- ATP concentration of maximum MTX transport rate (wild-type ABCG2): about 5 mM
- Km (wild-type ABCG2): 600 to 800 µM
- Km (ABCG2 [1]; read-out: KM of vanadate sensitive basal ATPase activity with respect to ATP, ABCG2-M membranes): 2200 µM
- Km (ABCG2 [2]): 2000 µM

- Level of stimulation (vanadate sensitive ATPase activity in %) (ABCG2 [2]; human, 40 min, 50 uM, pH 7): 83 ± 18 (3) %
Molecule: COc1cccc2c1C(=O)c1c(O)c3c(c(O)c1C2=O)C[C@@](O)(C(=O)CO)C[C@@H]3O[C@H]1C[C@H](N)[C@H](O)[C@H](C)O1 [Doxorubicin]

Molecule: C[C@]12CC[C@@H]3c4ccc(O)cc4CC[C@H]3[C@@H]1CC[C@@H]2O[C@@H]1O[C@H](C(=O)O)[C@@H](O)[C@H](O)[C@H]1O [ESG, estradiol 17-beta glucuronide]
- apparent Vmax of ESG uptake (wild-type ABCG2; cholesterol-loaded vesicles): 700 pmol ESG/mg membrane protein/min
- apparent Vmax of ESG uptake (wild-type ABCG2; control Sf9 membrane vesicles): less than 50 pmol ESG/mg membrane protein/min
- Km (wild-type ABCG2; read-out: apparent Km for ESG, cholesterol-loaded vesicles): ~45 µM

- Vmax (ABCG2-ATPase) (ABCG2 [1]): 38.87 nmol Pi/mg prot./min
- Vmax (ABCG2-ATPase) (ABCG2 [2]): 35.58 nmol Pi/mg prot./min
Molecule: C[C@]12CC[C@@H]3c4ccc(OS(=O)(=O)O)cc4CC[C@H]3[C@@H]1CCC2=O [Estrone-3-sulfate, estrone 3-sulfate]

- Effect on ABCG2-ATPase activity (in words) (ABCG2 [1]): significantly stimulated
- Vanadate sensitive ABCG2 ATPase activity activated by the substrate (ABCG2 [1]; human, 40 min, pH 7): 40 nmol/Pi/mg prot/min
- Effect on ABCG2-ATPase activity (in words) (ABCG2 [2]): weak activator
- Level of stimulation (vanadate sensitive ATPase activity in %) (ABCG2 [2]; human, 40 min, 20 uM, pH 7): 71% (3)
- Increase of vanadate sensitive ABCG2 ATPase activity in the presence of the substrate (ABCG2 [2]; human, 40 min, pH 7): 5 nmol/Pi/mg prot/min
- Vanadate sensitive ABCG2 ATPase activity activated by the substrate (ABCG2 [2]; human, 40 min, pH 7): 58 nmol/Pi/mg prot/min
Molecule: O=C(O)c1cc(/N=N/c2ccc(S(=O)(=O)Nc3ccccn3)cc2)ccc1O [Sulfasalazine, sulfasalazine]

- Effect on ABCG2-ATPase activity (in words) (ABCG2 [1]): significantly stimulated
- Level of stimulation (vanadate sensitive ATPase activity in %) (ABCG2 [2]; human, 40 min, 200 uM, pH 7): 31%
- Effect on ABCG2-ATPase activity (in words) (ABCG2 [2]; human, 40 min, pH 7): can not be activated
Molecule: CC[C@@]1(O)C(=O)OCc2c1cc1n(c2=O)Cc2cc3c(CN(C)C)c(O)ccc3nc2-1 [Topotecan, topotecan]

- Level of stimulation (vanadate sensitive ATPase activity in %) (ABCG2 [2]; human, 40 min, 5 uM, pH 7): 73 ± 19 (3) %
Molecule: COc1cc2ncnc(Nc3ccc(F)c(Cl)c3)c2cc1OCCCN1CCOCC1 [ZD 1839, Gefitinib]

Molecule: O=C1c2c(O)ccc(O)c2C(=O)c2c(NCCNCCO)ccc(NCCNCCO)c21 [mitoxantrone]
- Effect on ABCG2-ATPase activity (in words) (ABCG2 [2]): did not display any effect

- Effect of membrane pretreatment on ABCG2-dependent transport activity (in words) (wild-type ABCG2): did not significantly affect
Molecule: Randomly methylated-β-cyclodextrin [CD]

Molecule: rhodamine
- Effect on ABCG2-ATPase activity (in words) (ABCG2 [2]; cholesterol loaded Sf9 membranes): did not display any effect

B1: wild-type ABCG2 (Homo sapiens) (protein)
chain: MSSSNVEVFIPVSQGNTNGFPATASNDLKAFTEGAVLSFHNICYRVKLKSGFLPCRKPVEKEILSNINGIMKPGLNAILGPTGGGKSSLLDVLAARKDPSGLSGDVLINGAPRPANFKCNSGYVVQDDVVMGTLTVRENLQFSAALRLATTMTNHEKNERINRVIQELGLDKVADSKVGTQFIRGVSGGERKRTSIGMELITDPSILFLDEPTTGLDSSTANAVLLLLKRMSKQGRTIIFSIHQPRYSIFKLFDSLTLLASGRLMFHGPAQEALGYFESAGYHCEAYNNPADFFLDIINGDSTAVALNREEDFKATEIIEPSKQDKPLIEKLAEIYVNSSFYKETKAELHQLSGGEKKKKITVFKEISYTTSFCHQLRWVSKRSFKNLLGNPQASIAQIIVTVVLGLVIGAIYFGLKNDSTGIQNRAGVLFFLTTNQCFSSVSAVELFVVEKKLFIHEYISGYYRVSSYFLGKLLSDLLPMRMLPSIIFTCIVYFMLGLKPKADAFFVMMFTLMMVAYSASSMALAIAAGQSVVSVATLLMTICFVFMMIFSGLLVNLTTIASWLSWLQYFSIPRYGFTALQHNEFLGQNFCPGLNATGNNPCNYATCTGEEYLVKQGIDLSPWGLWKNHVALACMIVIFLTIAYLKLLFLKKYS
- Km ([3]; other: ABCG2-Sf9 membranes): 3900 µM
- Km ([3]; other: both untreated and C-CD pretreated vesicles): 500 µM
- Km ([3]; other: untreated membranes, ± S.D.): 935 µM

B2: ABCG2 (Homo sapiens) (protein)
chain: MSSSNVEVFIPVSQGNTNGFPATASNDLKAFTEGAVLSFHNICYRVKLKSGFLPCRKPVEKEILSNINGIMKPGLNAILGPTGGGKSSLLDVLAARKDPSGLSGDVLINGAPRPANFKCNSGYVVQDDVVMGTLTVRENLQFSAALRLATTMTNHEKNERINRVIQELGLDKVADSKVGTQFIRGVSGGERKRTSIGMELITDPSILFLDEPTTGLDSSTANAVLLLLKRMSKQGRTIIFSIHQPRYSIFKLFDSLTLLASGRLMFHGPAQEALGYFESAGYHCEAYNNPADFFLDIINGDSTAVALNREEDFKATEIIEPSKQDKPLIEKLAEIYVNSSFYKETKAELHQLSGGEKKKKITVFKEISYTTSFCHQLRWVSKRSFKNLLGNPQASIAQIIVTVVLGLVIGAIYFGLKNDSTGIQNRAGVLFFLTTNQCFSSVSAVELFVVEKKLFIHEYISGYYRVSSYFLGKLLSDLLPMRMLPSIIFTCIVYFMLGLKPKADAFFVMMFTLMMVAYSASSMALAIAAGQSVVSVATLLMTICFVFMMIFSGLLVNLTTIASWLSWLQYFSIPRYGFTALQHNEFLGQNFCPGLNATGNNPCNYATCTGEEYLVKQGIDLSPWGLWKNHVALACMIVIFLTIAYLKLLFLKKYS
- Km ([3]; other: ABCG2-M membranes, pH 7.0, 37.0 °C): 3600 µM
